CN1COCN(Cc2cnc(Cl)s2)C1=N[N+](=O)[O-]
solubility (mole fraction)
Details | 278.15 K | 283.15 K | 288.15 K | 293.15 K | 298.15 K | 303.15 K | 308.15 K | 313.15 K | 318.15 K | 323.15 K
in 1,4-dioxane | – | – | 0.00242 | 0.00311 | 0.00395 | 0.00496 | 0.00626 | 0.00763 | 0.00958 | 0.0117
in DMAc | 0.0654 | 0.0728 | 0.0802 | 0.0888 | 0.0976 | 0.107 | 0.118 | 0.129 | 0.14 | 0.152
in DMSO | – | – | 0.0672 | 0.0776 | 0.0885 | 0.101 | 0.115 | 0.13 | 0.147 | 0.164
in acetonitrile | 0.00675 | 0.00854 | 0.0106 | 0.0131 | 0.0161 | 0.0196 | 0.0238 | 0.0288 | 0.0349 | 0.0414
in water | 7.29e-05 | 9.97e-05 | 0.000132 | 0.000182 | 0.000241 | 0.000322 | 0.000418 | 0.000538 | 0.000696 | 0.000885
